The values that follow come from patent US20100196311A1, “METHODS AND COMPOSITIONS CONTAINING mTOR INHIBITORS FOR ENHANCING IMMUNE RESPONSES” (priority 2009, published 2010).

For test [1], the system named is T-bet. In words: T-bet mRNA and protein expression in OT-I cells. Format: cell-based, mouse. The method, then: FIG. 4. IL-12-Enhanced mTOR Phosphorylation Is Essential for T-bet-Determined Type I Effector Maturation of CD8^+ T Cells. (A-C) OT-I cells stimulated with Ag+B7.1 (±) IL-12 and rapamycin were evaluated for (A) mRNA for T-bet at the indicated time points by RT-PCR, (B) T-bet protein expression at the indicated time-points by ICS, and (C) T-bet protein expression by ICS before and after antigen recall. **p<0.0035; ***p<0.0005. (D) WT and Tbx21^−1− OT-I cells were stimulated with Ag+B7.1 (±) IL-12 and evaluated for IFN-γ production at the primary and secondary phase. ***p<0.0001. (E and F) OT-I cells stimulated with Ag+B7.1 (±) IL-12 and rapamycin were transduced with T-bet-ER retroviral vector (±) 4-HT (10 nM) and evaluated by ICS for (E) T-bet protein expression by ICS and (F) IFN-γ at secondary phase (168 hr). (G and H) OT-I cells stimulated with Ag+B7.1 (±) insulin (1 U/ml) and rapamycin were evaluated by ICS for (G) S6K phosphorylation at 48 hr and (H) T-bet expression at 72 hr. Experiments shown are representative of at least three (A, B, D, E, and F) and two (C, G, and H) independent experiments with similar outcomes. (Data are presented as mean±SEM).
Retroviral Transduction and T-Bet Induction. T-bet-ER RV (Estrogen Responsive Retro Viral Vector) was cotransfected into Platinum-E cells together with the retroviral packaging vector pCL-Eco using LipoD293 DNA in vitro transfection reagent (SignaGen Laboratories) following the manufacturer's instructions. The medium was replaced the following day, and retroviral supernatant was collected 3 days after transfection. For transduction, naive OT-I cells stimulated for 24 hr, were suspended in retroviral supernatant containing polybrene (8 μg/ml; Sigma-Aldrich), and were spin-transduced at 2200 rpm for 90 min at 30° C. After spin-transduction, cells were cultured in fresh medium containing the same polarizing milieu as before, along with the addition of 4-HT (10 nM). At the end of 72 hr after initial stimulation, cells were washed thrice and maintained in the absence of any stimulation but in the presence of 4-HT and IL-7 (10 ng/ml).
Because the sustained expression of T-bet is necessary and sufficient for imprinting type I effector cell fate (Matsuda et al., 2007) and mTOR inhibition reversed IL-12 imprinted type I effector maturation in OT-I cells (FIG. 3), we next sought to determine whether rapamycin treatment affects T-bet expression in OT-I cells by performing kinetic analysis of T-bet mRNA expression (FIG. 4A). […] Moreover, inhibition of mTOR activity at 12 hr was also able to achieve loss in T-bet expression, similar to the observed loss in type I effector maturation (FIG. 3E).

The target of test [2] is T1, mTOR (Mus musculus, UniProt P26883+Q9JLN9).
T1 construct: endogenous in cells; host or cells: naive OT-I CD8+ T cells (TCR transgenic Rag2-/- mice) stimulated with Ag+B7.1 +/- IL-12
In words: mTOR activity (mTOR, S6K and S6 phosphorylation by ICS) in stimulated OT-I cells. Format: cell-based. The method, then:
FIG. 1. […] (A and B) OT-I cells stimulated with BOK (Ag+B7.1) (±) IL-12 were evaluated for (A) IFN-γ by ICS and (B) cytolytic activity (primary, 72 hr poststimulation; secondary, 24 hr postsecondary stimulation); ***p<0.0002. (C-E) OT-I cells stimulated with antigen (Ag) (the antigen is a peptide consisting of Ser Ile Ile followed by Asn Phe Glu which are followed by Lys and Lue (OVAp), used at 10 nM) plus B7.1 (100 μg/ml)(Ag+B7.1)(±) IL-12 (2 ng/ml) were evaluated by ICS at the indicated time points for (C) phosphorylated mTOR, (D) phosphorylated S6K, and (E) phosphorylated ribosomal S6. For mTOR inhibition, rapamycin (20 ng/ml) was added 30 min prior to addition of antigen, cytokine Data are representative of at least three independent experiments with similar outcomes. (Data are presented as mean±SEM.)
Stimulation of OT-1 Cells. Naive OT-I cells were stimulated with latex microspheres expressing H-2K^b/ovalbumin antigen and B7.1 according to known techniques. Naive OT-II cells were stimulated with anti-CD3-/anti-CD28-coated latex beads. In some experiments, the cell line derived from embryonic fibroblasts, namely, BOK (MEC.B7.SigOVA: expressing H-2K^b, OVAp and B7.1, were used as antigen-presenting cells to stimulate naive OT-I cells according to known techniques.
Although the kinase mTOR has been implicated as an integrator of various extracellular signals and a sensor for internal energy levels for determination of cell fate, the role for mTOR in integrating instructions that program naive CD8^+ T cells for type I effector differentiation is unclear. First, we tested the ability of Ag and B7.1 (Ag+B7.1) in the presence or absence of IL-12 to activate mTOR in OT-I cells at various time points after stimulation. Stimulation of naive OT-I cells with Ag+B7.1 induced mTOR phosphorylation (activation) by 2 hr, which was maximal at 12 hr and barely detectable by 48 hr (FIG. 1C). Remarkably, IL-12 addition enhanced Ag+B7.1-induced mTOR phosphorylation at 2 hr, which was maintained at 48 hr after stimulation (FIG. 1C). […] To verify that the induction of mTOR phosphorylation also led to its kinase activity, we monitored the kinetics of p70 S6K phosphorylation (Ser 371), a direct target of mTOR kinase activity. Although both Ag+B7.1 and Ag+B7.1 plus IL-12 induced similar amounts of S6K phosphorylation at 12 hr (maximal), the presence of IL-12 was able to sustain the S6K phosphorylation up to 48 hr (FIG. 10), in correlation with mTOR phosphorylation (FIG. 1C). […] The Ag+B7.1±IL-12 stimulation-induced S6K and S6 phosphorylation in OT-I cells was blocked by rapamycin (specific inhibitor of mTOR complex-1) (FIGS. 1D and 1E), thus confirming the ability of instructions to activate mTOR and its kinase activity in OT-I cells. […]

The mark [3] stands for this setting: IFN-α, Ag+B7.1-stimulated OT-I cells.

IFN-α: the T-bet expression result in test [1] (setting [3]) is “unable to enhance”. Moreover, the mTOR activity result in test [2] (setting [3]) is “unable to enhance”.

B1: IL-12: interleukin-12, cytokine (signal 3) (protein, UniProt P43431 23-215; P43432 23-335, looked up)
Interleukin-12 subunit alpha: RVIPVSGPARCLSQSRNLLKTTDDMVKTAREKLKHYSCTAEDIDHEDITRDQTSTLKTCLPLELHKNESCLATRETSSTTRGSCLPPQKTSLMMTLCLGSIYEDLKMYQTEFQAINAALQNHNHQQIILDKGMLVAIDELMQSLNHNGETLRQKPPVGEADPYRVKMKLCILLHAFSTRVVTINRVMGYLSSA
Interleukin-12 subunit beta: MWELEKDVYVVEVDWTPDAPGETVNLTCDTPEEDDITWTSDQRHGVIGSGKTLTITVKEFLDAGQYTCHKGGETLSHSHLLLHKKENGIWSTEILKNFKNKTFLKCEAPNYSGRFTCSWLVQRNMDLKFNIKSSSSSPDSRAVTCGMASLSAEKVTLDQRDYEKYSVSCQEDVTCPTAEETLPIELALEARQQNKYENYSTSFFIRDIIKPDPPKNLQMKPLKNSQVEVSWEYPDSWSTPHSYFSLKFFVRIQRKKEKMKETEEGCNQKGAFLVEKTSTEVQCKGGNVCVQAQDRYYNSSCSKWACVPCRVRS
With B1, the “Ag+B7.1-induced T-bet expression” value in test [1] (IL-12 addition, 24-96 hr) is “enhanced and sustained”. Further, in test [2] (IL-12 (2 ng/ml) added to Ag+B7.1 stimulation, 2-48 hr), the mTOR phosphorylation entry was “enhances and sustains”.
